{
  "source": "paper PMC11537054",
  "about": "“A conserved two-component system senses intracellular iron levels and regulates redox balance in Mycobacterium spp” (Microbiology Spectrum, 2024)",
  "molecular_target": "PdtaS (PdtaS-eGFP) (Mycobacterium tuberculosis, UniProt P9WGL5)",
  "sequence (P9WGL5 whole entry)": "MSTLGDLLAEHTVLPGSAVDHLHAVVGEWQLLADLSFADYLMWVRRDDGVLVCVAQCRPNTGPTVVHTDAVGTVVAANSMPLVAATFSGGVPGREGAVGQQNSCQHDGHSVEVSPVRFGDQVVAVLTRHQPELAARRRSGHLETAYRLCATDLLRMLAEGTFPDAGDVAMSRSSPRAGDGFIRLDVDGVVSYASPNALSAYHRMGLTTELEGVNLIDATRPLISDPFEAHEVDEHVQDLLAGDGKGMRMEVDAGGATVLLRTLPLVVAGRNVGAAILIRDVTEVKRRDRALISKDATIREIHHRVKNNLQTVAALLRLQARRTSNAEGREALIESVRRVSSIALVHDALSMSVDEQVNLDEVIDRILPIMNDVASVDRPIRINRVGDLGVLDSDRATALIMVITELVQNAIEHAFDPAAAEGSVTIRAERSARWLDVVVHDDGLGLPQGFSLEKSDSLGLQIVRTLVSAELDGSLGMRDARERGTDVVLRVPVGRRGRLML",
  "test": "biochemical",
  "data": [
    {"smiles": "C=CC1=C(C)C2=Cc3c(C=C)c(C)c4[n]3[Fe]([Cl])[n]3c(c(C)c(CCC(=O)O)c3=CC3=NC(=C4)C(C)=C3CCC(=O)O)=CC1=N2", "note": "[hemin]", "values": [
      {"measurement": "Kd", "value": "~17.2", "unit": "nM"}
    ]}
  ]
}
